Values after ≈ are worked out from the molar mass of the structure shown. Like-named read-outs stand apart in the source and are kept apart here.
Tests used:
[1] = Equilibrium solubility in water, pH 7.4 phosphate buffer, SGF and SIF; type: physicochemical
Protocol: Simulated gastric fluid (SGF) consisted of 0.2% (w/v) sodium chloride, 0.32% (w/v) pepsin, and 0.7% (v/v) HCl (final pH = 1.2). Simulated intestinal fluid (SIF) was prepared by dissolving 3 mM sodium taurocholate and 0.1% (w/v) pancreatin in phosphate buffer (final pH = 7.0). The solubility of acacetin was measured by adding excessive amounts of acacetin into glass vials containing 1.5 mL of water, pH 7.4 phosphate buffer, SGF, and SIF. The mixtures were allowed to reach equilibrium in a shaking incubator (FINEPCR, Gyeonggi-do, South Korea) at 500 rpm at 37 °C for 48 h. The samples were centrifuged at 16,000× g for 5 min, and the supernatant was passed through a 0.20-μm syringe filter to remove excess acacetin. Further, the concentration of acacetin in the filtrate was determined using the LC-MS/MS method. The distribution coefficients of acacetin in water (log P) and pH 7.4 phosphate buffer (log D7.4) were determined using an octanol–water system at 25 ± 0.5 °C. The two phases were pre-saturated with each other by vigorous vortex-mixing for 15 min and further stabilized overnight for phase separation. A certain amount of acacetin (less than its solubility) was dissolved in the pre-saturated octanol, vortex mixed with the same volume of pre-saturated water for 1 h, shaken for 24 h, and further centrifuged at 16,000× g for 30 min. Finally, the acacetin concentrations in the octanol and water layers were determined using the LC-MS/MS method. The membrane permeability of acacetin and reference compounds (verapamil as a reference for high permeability and ranitidine as a reference for low permeability) was assessed by parallel artificial membrane permeability assay (PAMPA). The PAMPA was conducted using a commercially available PAMPA kit (GIT PAMPA Double Sink; pION Inc., Massachusetts, MA, USA) according to the manufacturer’s protocol. The permeability was calculated using pION PAMPA Explorer ver. 3.8 software (pION Inc., Massachusetts, MA, USA).

[2] = Unbound fraction by rapid equilibrium dialysis; type: in vitro ADME, rat
Protocol: The fractions of unbound acacetin in plasma (fuP), microsomes (fuMIC), SGF (fuSGF), and SIF(fuSIF) were measured using a rapid equilibrium dialysis device (Thermo Fisher Scientific, Inc., Waltham, MA, USA) as previously described with slight modifications. Briefly, 0.2 mL of the matrix spiked with acacetin (10 μM) was placed into the “sample” chamber, and 0.4 mL of PBS was placed into the adjacent “buffer” chamber. The fractions of unbound acacetin were calculated as the concentration ratio between the two chambers. The blood-to-plasma concentration ratio (RB) of acacetin was determined as described previously. Briefly, 1-mL blood spiked with acacetin (1 μM) was incubated at 37 °C for 30 min. The blood sample was centrifuged at 2000× g for 5 min to prepare the plasma sample. The concentrations of acacetin in the aforementioned plasma and buffer samples were measured using the LC-MS/MS method.

[3] = Oral pharmacokinetic study in rats; type: in vivo
Protocol: The rats were fasted overnight before the experiment and anesthetized using an intramuscular injection of zoletil at 20 mg/kg. The femoral artery and vein were cannulated with a polyethylene tube (Clay Adams, Parsippany, NJ, USA). Acacetin (dissolved in a vehicle composed of DMSO, ethanol, and PEG400 (10:5:85, v/v/v)) was administered intravenously (10 mg/kg) or orally (100 mg/kg) to rats. Approximately 250 μL of blood was collected via the femoral artery at 0, 2, 5, 15, 30, 45, 60, 120, and 180 min after intravenous administration and at 0, 2, 5, 15, 30, 45, 60, 90, 120, and 180 min after oral administration. The cannula was flushed with heparin (20 IU/mL in saline) at each time point to prevent blood clotting. Following centrifugation of the blood sample at 8000× g and 4 °C for 2 min, 120 μL of plasma was obtained. Urine was collected at 1-h intervals in an ice-cold container over 24 h. After urine collection at 24 h, each rat was sacrificed by cervical dislocation; the entire GI tract (including its contents and feces) was excised, transferred into a beaker containing 100 mL methanol, and cut into small pieces using scissors. After manual stirring with a glass rod for 1 min, a 50-μL aliquot of the supernatant was collected. The plasma, urine (Ae24h), and GI tract (GI24h) samples were stored at −80 °C until further LC-MS/MS analysis.
A noncompartmental analysis (WinNonlin ver. 3.1; Certara USA Inc., Princeton, NJ, USA) was performed to determine the following pharmacokinetic parameters: the AUCinf, area under plasma concentration versus time curve from time zero to the last sampling time (AUClast), t1/2, total body clearance (CL), apparent volume of distribution at steady state (Vss), and absolute oral bioavailability (F). The Cmax and time to reach Cmax (Tmax) were directly obtained from the plasma concentration versus time data.

solubility at 48 h ([1]; aqueous buffer, thermodynamic from solid, pH 7.4 phosphate buffer, 37 °C, 48 h, read-out: Solubility, pH 7.4 phosphate buffer): 0.0121 ± 0.0011 µg/mL (≈ 0.0426 µM)
solubility at 48 h ([1]; fassgf or other biorelevant, thermodynamic from solid, SIF pH 7.0, 37 °C, 48 h, read-out: Solubility, SIF): 0.119 ± 0.008 µg/mL (≈ 0.419 µM)
solubility at 48 h ([1]; pH 7 phosphate buffer, SGF and SIF, pH 7, in abstract, read-out: Solubility in pH 7 phosphate buffer and simulated GI fluids): ≤ 0.119 µg/mL
solubility at 48 h ([1]; simulated gastric fluid, thermodynamic from solid, SGF pH 1.2, 37 °C, 48 h, read-out: Solubility, SGF): 0.0593 ± 0.0071 µg/mL (≈ 0.209 µM)
solubility at 48 h ([1]; thermodynamic from solid, water, 37 °C, 48 h, read-out: Solubility, Water): 0.0401 ± 0.0073 µg/mL (≈ 0.141 µM)
solubility at 48 h ([1]; water, pH 7.4 phosphate buffer, SGF and SIF, pH 7.4, upper bound over all four media, read-out: Solubility in water, pH 7.4 buffer, SGF, and SIF): ≤ 0.119 µg/mL
fraction unbound at 10 μM ([2]; SGF, 10 μM, read-out: fuSGF (fraction unbound in SGF)): 0.822 ± 0.026
fraction unbound at 10 μM ([2]; SIF, 10 μM, read-out: fuSIF (fraction unbound in SIF)): 0.714 ± 0.009
fraction unbound at 10 μM ([2]; Sprague-Dawley, rat, liver microsomes (RLM), RLM, 10 μM, read-out: fuMIC (fraction unbound in microsomes)): 0.302 ± 0.021
fraction unbound at 10 μM ([2]; Sprague-Dawley, rat, plasma and liver microsomes (RLM), range over plasma and RLM, read-out: Unbound fraction in plasma and RLM): 0.00901 to 0.317
fraction unbound at 10 μM ([2]; Sprague-Dawley, rat plasma, 10 μM, read-out: fuP (fraction unbound in plasma)): 0.0102 ± 0.0011
fraction unbound at 10 μM ([2]; range over SGF and SIF, read-out: Unbound fraction in SGF and SIF): 0.707 to 0.849
GI24h ([3]; PO 100 mg/kg, GI tract at 24 h): 29.3 ± 22.3 % of dose
Ae24h ([3]; PO 100 mg/kg, urine 24 h): 0.0601 ± 0.0634 % of dose
AUC(0-t) ([3]; rat, plasma, PO 100 mg/kg): 12.9 ng·h/mL
Cmax ([3]; rat, plasma, PO 100 mg/kg): 52.1 ± 50.5 ng/mL
Tmax ([3]; rat, plasma, PO 100 mg/kg, median (range)): 5 min
bioavailability ([3]; rat, urine, PO 100 mg/kg vs IV 10 mg/kg, from dose-normalized urinary excretion, read-out: F (absolute oral bioavailability)): 2.34%
Structure (SMILES): COc1ccc(-c2cc(=O)c3c(O)cc(O)cc3o2)cc1 [acacetin, Acacetin]

Source: article PMC7911516, “Investigation of the Factors Responsible for the Poor Oral Bioavailability of Acacetin in Rats: Physicochemical and Biopharmaceutical Aspects” (Pharmaceutics, 2021)
